Reference: patent US11135320B2, “Radioligands for pretargeted pet imaging and methods of their therapeutic use” (priority 2015, dated 2021)
Like-named read-outs stand apart in the source and are kept apart here.

Experiments:
[1] = pretargeting, 24 h interval; Zeglis 2013; cited from earlier work
[2] = tested on: subcutaneous SW1222 xenografts (A33 antigen-expressing human colorectal carcinoma); conditions: 24 h accumulation interval, Zeglis 2013, cited from earlier work
[3] = Blood residence time of ^64Cu-Tz-SarAr in healthy mice; format: in vivo, athymic nude mice; conditions: for Activity in Blood: healthy mice
Experimental: The radioligand was excreted rapidly via the bladder and kidneys, and the activity concentrations in the large intestine—a critical source of background noise in clinical colorectal cancer imaging—remained remarkably low (e.g., 0.07±0.01% ID/g at 1 h post-injection). Additional experiments were conducted to further interrogate the in vivo performance of ^64Cu-Tz-SarAr.

[4] = In vivo stability of ^64Cu-Tz-SarAr (intact fraction in blood); parameters: species or system athymic nude mice
Experimental: Healthy athymic nude mice were injected with ^64Cu-Tz-SarAr (300-350 μCi) via intravenous tail vein injection. After 15 min, 1 h, or 4 h, the mice were sacrificed via CO2 asphyxiation, and their blood (500 μL) was collected via cardiac puncture in heparinized 1.7 mL microcentrifuge tubes. These tubes were then centrifuged at 10,000 rpm for 10 minutes to separate plasma from red-blood cells. After 10 minutes, the plasma supernatant was then transferred to a new 1.7 mL microcentrifuge tube and placed on ice. Subsequently, 500 μL of ice-cold CH3CN was added to the plasma to precipitate the proteins, and the tubes were vortexed briefly and centrifuged again for 10 min at 10,000 rpm. After this centrifugation, the supernatant was carefully removed and transferred to another 1.7 mL microcentrifuge tube, in which it was subjected to another round of centrifugation at 10,000 rpm for 10 min. After this final centrifugation, the supernatant was again transferred to a clean 1.7 mL microcentrifuge tube. This solution was then analyzed via radio-TLC methods using reverse-phase C18 TLC plates and a mobile phase of 1:1 CH3CN:water (each with 0.1% TFA). Using this method, any free ^64Cu^2+ will remain at the baseline, while ^64Cu-Tz-SarAr and other metabolites will travel up the TLC plate. The fraction of intact ^64Cu-Tz-SarAr was calculated by dividing the integral of the parent compound peak over the integral of the entire radio-TLC chromatogram. All experiments were performed in triplicate.

Structure (SMILES): O=C([O-])CN1CCN(CC(=O)[O-])CC(Cc2ccc(NC(=O)CCCC(=O)NCc3ccc(-c4nncnn4)cc3)cc2)N(CC(=O)[O-])CC1.[64Cu+2] (stereo not shown) [^64Cu-Tz-NOTA]
- Adrenals absorbed dose [1]: 0.0251 rad/mCi
- Bladder Wall absorbed dose [1]: 0.0262 rad/mCi
- Brain absorbed dose [1]: 0.0236 rad/mCi
- Breasts absorbed dose [1]: 0.0209 rad/mCi
- Effective Dose [1]: 0.046 rem/mCi
- Gallbladder Wall absorbed dose [1]: 0.0272 rad/mCi
- Heart Wall absorbed dose [1]: 0.0294 rad/mCi
- Kidneys absorbed dose [1]: 0.0315 rad/mCi
- Liver absorbed dose [1]: 0.0311 rad/mCi
- Lower Lg. Int. Wall absorbed dose [1]: 0.166 rad/mCi
- Lungs absorbed dose [1]: 0.0289 rad/mCi
- Muscle absorbed dose [1]: 0.0138 rad/mCi
- Osteogenic Cells absorbed dose [1]: 0.0852 rad/mCi
- Ovaries absorbed dose [1]: 0.0299 rad/mCi
- Pancreas absorbed dose [1]: 0.0258 rad/mCi
- Red Marrow absorbed dose [1]: 0.0530 rad/mCi
- Skin absorbed dose [1]: 0.0194 rad/mCi
- Small Intestine absorbed dose [1]: 0.033 rad/mCi
- Spleen absorbed dose [1]: 0.0180 rad/mCi
- Stomach Wall absorbed dose [1]: 0.0267 rad/mCi
- Testes absorbed dose [1]: 0.0225 rad/mCi
- Thymus absorbed dose [1]: 0.0227 rad/mCi
- Thyroid absorbed dose [1]: 0.0228 rad/mCi
- Total Body absorbed dose [1]: 0.0272 rad/mCi
- Upper Lg. Int. Wall absorbed dose [1]: 0.114 rad/mCi
- Uterus absorbed dose [1]: 0.0277 rad/mCi
- Blood activity concentration ([2]; 1 h p.i.): 3.47 ± 0.63 % ID/g
- Bone activity concentration ([2]; 1 h p.i.): 0.3 ± 0.16 % ID/g
- Heart activity concentration ([2]; 1 h p.i.): 1.09 ± 0.18 % ID/g
- Kidney activity concentration ([2]; 1 h p.i.): 1.3 ± 0.15 % ID/g
- Large Intestine activity concentration ([2]; 1 h p.i.): 13.29±3.15 % ID/g
- Liver activity concentration ([2]; 1 h p.i.): 2.19 ± 0.25 % ID/g
- Lung activity concentration ([2]; 1 h p.i.): 1.58 ± 0.46 % ID/g
- Muscle activity concentration ([2]; 1 h p.i.): 0.22 ± 0.04 % ID/g
- Small Intestine activity concentration ([2]; 1 h p.i.): 0.03 ± 0.04 % ID/g
- Spleen activity concentration ([2]; 1 h p.i.): 0.63 ± 0.07 % ID/g
- Stomach activity concentration ([2]; 1 h p.i.): 0.45 ± 0.08 % ID/g
- Tumor activity concentration ([2]; 1 h p.i.): 4.07 ± 0.25 % ID/g
- Tumor/Blood activity concentration ratio ([2]; 1 h p.i.): 1.17 ± 0.22
- Tumor/Bone activity concentration ratio ([2]; 1 h p.i.): 13.72 ± 7.63
- Tumor/Heart activity concentration ratio ([2]; 1 h p.i.): 3.75 ± 0.65
- Tumor/Kidney activity concentration ratio ([2]; 1 h p.i.): 3.14 ± 0.41
- Tumor/Large Intestine activity concentration ratio ([2]; 1 h p.i.): 0.31 ± 0.08
- Tumor/Liver activity concentration ratio ([2]; 1 h p.i.): 1.86 ± 0.24
- Tumor/Lung activity concentration ratio ([2]; 1 h p.i.): 2.57 ± 0.76
- Tumor/Muscle activity concentration ratio ([2]; 1 h p.i.): 18.42 ± 3.71
- Tumor/Small Intestine activity concentration ratio ([2]; 1 h p.i.): 119.52 ± 148.82
- Tumor/Spleen activity concentration ratio ([2]; 1 h p.i.): 6.46 ± 0.81
- Tumor/Stomach activity concentration ratio ([2]; 1 h p.i.): 8.96 ± 1.7
- Blood activity concentration ([2]; 4 h p.i.): 2.61 ± 0.83 % ID/g
- Bone activity concentration ([2]; 4 h p.i.): 0.27 ± 0.24 % ID/g
- Heart activity concentration ([2]; 4 h p.i.): 0.91 ± 0.27 % ID/g
- Kidney activity concentration ([2]; 4 h p.i.): 0.95 ± 0.31 % ID/g
- Large Intestine activity concentration ([2]; 4 h p.i.): 9.43 ± 4.22 % ID/g
- Liver activity concentration ([2]; 4 h p.i.): 1.26 ± 0.3 % ID/g
- Lung activity concentration ([2]; 4 h p.i.): 1.6 ± 0.39 % ID/g
- Muscle activity concentration ([2]; 4 h p.i.): 0.14 ± 0.03 % ID/g
- Small Intestine activity concentration ([2]; 4 h p.i.): 0.38 ± 0.08 % ID/g
- Spleen activity concentration ([2]; 4 h p.i.): 0.51 ± 0.22 % ID/g
- Stomach activity concentration ([2]; 4 h p.i.): 0.25 ± 0.12 % ID/g
- Tumor activity concentration ([2]; 4 h p.i.): 4.09±0.61 % ID/g
- Tumor/Blood activity concentration ratio ([2]; 4 h p.i.): 1.57 ± 0.55
- Tumor/Bone activity concentration ratio ([2]; 4 h p.i.): 14.95 ± 13.2
- Tumor/Heart activity concentration ratio ([2]; 4 h p.i.): 4.51 ± 1.49
- Tumor/Kidney activity concentration ratio ([2]; 4 h p.i.): 4.32 ± 1.56
- Tumor/Large Intestine activity concentration ratio ([2]; 4 h p.i.): 0.43 ± 0.2
- Tumor/Liver activity concentration ratio ([2]; 4 h p.i.): 3.23 ± 0.9
- Tumor/Lung activity concentration ratio ([2]; 4 h p.i.): 2.55 ± 0.73
- Tumor/Muscle activity concentration ratio ([2]; 4 h p.i.): 29.38 ± 8.5
- Tumor/Small Intestine activity concentration ratio ([2]; 4 h p.i.): 10.83 ± 2.8
- Tumor/Spleen activity concentration ratio ([2]; 4 h p.i.): 7.97 ± 3.57
- Tumor/Stomach activity concentration ratio ([2]; 4 h p.i.): 16.17 ± 8.21
- Blood activity concentration ([2]; 12 h p.i.): 2.31 ± 0.4 % ID/g
- Bone activity concentration ([2]; 12 h p.i.): 0.35 ± 0.11 % ID/g
- Heart activity concentration ([2]; 12 h p.i.): 0.92 ± 0.14 % ID/g
- Kidney activity concentration ([2]; 12 h p.i.): 0.91 ± 0.29 % ID/g
- Large Intestine activity concentration ([2]; 12 h p.i.): 2.92 ± 1.34 % ID/g
- Liver activity concentration ([2]; 12 h p.i.): 0.93 ± 0.23 % ID/g
- Lung activity concentration ([2]; 12 h p.i.): 1.09 ± 0.38 % ID/g
- Muscle activity concentration ([2]; 12 h p.i.): 0.16 ± 0.02 % ID/g
- Small Intestine activity concentration ([2]; 12 h p.i.): 0.77 ± 0.51 % ID/g
- Spleen activity concentration ([2]; 12 h p.i.): 0.59 ± 0.25 % ID/g
- Stomach activity concentration ([2]; 12 h p.i.): 0.52 ± 0.64 % ID/g
- Tumor activity concentration ([2]; 12 h p.i.): 4.20 ± 0.84 % ID/g
- Tumor/Bone activity concentration ratio ([2]; 12 h p.i.): 11.98 ± 4.51
- Tumor/Heart activity concentration ratio ([2]; 12 h p.i.): 4.58 ± 1.16
- Tumor/Kidney activity concentration ratio ([2]; 12 h p.i.): 4.6 ± 1.71
- Tumor/Large Intestine activity concentration ratio ([2]; 12 h p.i.): 1.44±0.72
- Tumor/Liver activity concentration ratio ([2]; 12 h p.i.): 4.53 ± 1.45
- Tumor/Lung activity concentration ratio ([2]; 12 h p.i.): 3.87 ± 1.55
- Tumor/Small Intestine activity concentration ratio ([2]; 12 h p.i.): 5.46 ± 3.81
- Tumor/Spleen activity concentration ratio ([2]; 12 h p.i.): 7.1 ± 3.34
- Tumor/Stomach activity concentration ratio ([2]; 12 h p.i.): 8.12 ± 10.12
- Blood activity concentration ([2]; 24 h p.i.): 2.07 ± 0.49 % ID/g
- Bone activity concentration ([2]; 24 h p.i.): 0.29 ± 0.07 % ID/g
- Heart activity concentration ([2]; 24 h p.i.): 0.82 ± 0.21 % ID/g
- Kidney activity concentration ([2]; 24 h p.i.): 0.7 ± 0.19 % ID/g
- Large Intestine activity concentration ([2]; 24 h p.i.): 1.67 ± 0.88 % ID/g
- Liver activity concentration ([2]; 24 h p.i.): 1.07 ± 0.15 % ID/g
- Lung activity concentration ([2]; 24 h p.i.): 1.03 ± 0.31 % ID/g
- Muscle activity concentration ([2]; 24 h p.i.): 0.15 ± 0.02 % ID/g
- Small Intestine activity concentration ([2]; 24 h p.i.): 0.35 ± 0.04 % ID/g
- Spleen activity concentration ([2]; 24 h p.i.): 0.45 ± 0.11 % ID/g
- Stomach activity concentration ([2]; 24 h p.i.): 0.16 ± 0.03 % ID/g
- Tumor activity concentration ([2]; 24 h p.i.): 3.94 ± 0.92 % ID/g
- Tumor/Blood activity concentration ratio ([2]; 24 h p.i.): 1.9 ± 0.63
- Tumor/Bone activity concentration ratio ([2]; 24 h p.i.): 13.43 ± 4.5
- Tumor/Heart activity concentration ratio ([2]; 24 h p.i.): 4.82 ± 1.69
- Tumor/Kidney activity concentration ratio ([2]; 24 h p.i.): 5.61 ± 1.98
- Tumor/Large Intestine activity concentration ratio ([2]; 24 h p.i.): 2.36 ± 1.37
- Tumor/Liver activity concentration ratio ([2]; 24 h p.i.): 3.69 ± 1.01
- Tumor/Lung activity concentration ratio ([2]; 24 h p.i.): 3.83 ± 1.45
- Tumor/Muscle activity concentration ratio ([2]; 24 h p.i.): 26.98 ± 7.41
- Tumor/Small Intestine activity concentration ratio ([2]; 24 h p.i.): 11.4 ± 2.91
- Tumor/Spleen activity concentration ratio ([2]; 24 h p.i.): 8.79 ± 2.98
- Tumor/Stomach activity concentration ratio ([2]; 24 h p.i.): 24.29 ± 6.89

Structure (SMILES): NC12CNCCNCC(NCc3ccc(CNC(=O)CCCC(=O)NCc4ccc(-c5nncnn5)cc4)cc3)(CNCCNC1)CNCCNC2.[64Cu+2] [^64Cu-Tz-SarAr]
- half-life of clearance from the blood ([3]; biexponential fit, greater than 99% of the radioligand): ~16 min
- Activity in Blood ([3]; 15 min): 3.02 ± 1.10 % ID/g
- Activity in Blood ([3]; 30 min): 1.55 ± 0.21 % ID/g
- Activity in Blood ([3]; 1 h): 0.42 ± 0.11 % ID/g
- Activity in Blood ([3]; 4 h): 0.15 ± 0.01 % ID/g
- Activity in Blood ([3]; 12 h): 0.12 ± 0.03 % ID/g
- Activity in Blood ([3]; 24 h): 0.06 ± 0.01 % ID/g
- blood residence time ([3]; vast majority of the radioligand): ~16 min
- % Intact in blood ([4]; 15 min post-injection): 96.8±0.8%
- % Intact in blood ([4]; 1 h post-injection): 82.0±3.3%
- % Intact in blood ([4]; 4 h post-injection): 29.0±5.9%
